Consider 1 compound from US9714233B2, “Processes and intermediates for making a JAK inhibitor” (Incyte Corporation, priority 2013, dated 2017).

Molecules are shown by their SMILES.

The term IC50 denotes the midpoint of a concentration-inhibition curve. Read a high IC50 as weaker potency.

The target of this test is T1, human JAK1 (a.a. 837-1142) catalytic domain (Homo sapiens, UniProt P23458).
T1 construct: human JAK1 (a.a. 837-1142); His tag (N); made in house; host or cells: insect cells (baculovirus)
T1 sequence (P23458 849-1154 limits assumed): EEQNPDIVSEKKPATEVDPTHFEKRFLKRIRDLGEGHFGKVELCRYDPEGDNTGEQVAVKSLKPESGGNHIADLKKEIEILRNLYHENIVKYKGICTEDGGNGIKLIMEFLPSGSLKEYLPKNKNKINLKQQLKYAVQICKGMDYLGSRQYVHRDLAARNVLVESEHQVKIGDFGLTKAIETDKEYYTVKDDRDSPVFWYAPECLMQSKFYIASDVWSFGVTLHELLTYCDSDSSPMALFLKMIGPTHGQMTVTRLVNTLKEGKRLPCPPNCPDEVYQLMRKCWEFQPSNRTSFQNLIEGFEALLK
The test is described as follows: In vitro JAK kinase assay (HTRF, phosphorylation of biotinylated peptide), JAK1. Type of test: biochemical. As to conditions: measured at 1 mM ATP. How it is done:
The compound of Formula I was tested for inhibitory activity of JAK targets according to the following in vitro assay described in Park et al., Analytical Biochemistry 1999, 269, 94-104. The catalytic domains of human JAK1 (a.a. 837-1142) and JAK2 (a.a. 828-1132) with an N-terminal His tag were expressed using baculovirus in insect cells and purified. The catalytic activity of JAK1 and JAK2 was assayed by measuring the phosphorylation of a biotinylated peptide. The phosphorylated peptide was detected by homogenous time resolved fluorescence (HTRF). IC50s of compounds were measured for each kinase in the 40 microL reactions that contain the enzyme, ATP and 500 nM peptide in 50 mM Tris (pH 7.8) buffer with 100 mM NaCl, 5 mM DTT, and 0.1 mg/mL (0.01%) BSA. For the 1 mM IC50 measurements, ATP concentration in the reactions was 1 mM. Reactions were carried out at room temperature for 1 hr and then stopped with 20 μL 45 mM EDTA, 300 nM SA-APC, 6 nM Eu-Py20 in assay buffer (Perkin Elmer, Boston, Mass.). Binding to the Europium labeled antibody took place for 40 minutes and HTRF signal was measured on a Fusion plate reader (Perkin Elmer, Boston, Mass.).
(In general: TR-FRET usually uses a lanthanide donor and a delayed reading to cut background.)

`N#CCC1(n2cc(-c3ncnc4[nH]ccc34)cn2)CN(C2CCN(C(=O)c3ccnc(C(F)(F)F)c3F)CC2)C1` [Formula I, {1-{1-[3-fluoro-2-(trifluoromethyl)isonicotinoyl]piperidin-4-yl}-3-[4-(7H-pyrrolo[2,3-d]pyrimidin-4-yl)-1H-pyrazol-1-yl]azetidin-3-yl}acetonitrile] showed a concentration for half-maximal inhibition (IC50) of at most 5 nM.
